# Tests used:
# Set-up in all cases: dose 25 mg/kg
# [1] = Plasma concentration in Wistar rat at 25 mg/kg after 12 hrs; assay type: ADME, organism-based
# Plasma [2] = assay: Metabolic stability in Wistar rat plasma assessed as alpha-lapachone level at 25 mg/kg after 12 hrs; assay type: ADME, organism-based; details: in vivo
# Plasma [3] = assay: Metabolic stability in Wistar rat plasma assessed as alpha-lapachone level at 25 mg/kg after 1.5 hrs; assay type: ADME, organism-based; details: in vivo
# Plasma [4] = assay: Metabolic stability in Wistar rat plasma assessed as dehydro-alpha-lapachone level at 25 mg/kg after 1.5 hrs; assay type: ADME, organism-based; details: in vivo
# [5] = Plasma concentration in Wistar rat at 25 mg/kg after 1.5 hrs; assay type: ADME, organism-based
# Plasma [6] = assay: Metabolic stability in Wistar rat plasma assessed as alpha-lapachone level at 25 mg/kg after 3 hrs; assay type: ADME, organism-based; details: in vivo
# Rattus norvegicus = assay: Toxicity in Wistar rat at 25 mg/kg; assay type: organism-based; details: in vivo
smiles,measurement,setting,value
CC(C)=CCC1=C(O)C(=O)c2ccccc2C1=O [LAPACHOL],concentration at 12 h,[1],2000 ng/mL
same,Drug metabolism,Plasma [2],0.7 µg/mL
same,Drug metabolism,Plasma [3],1.4 µg/mL
same,Drug metabolism,Plasma [4],0.6 µg/mL
same,concentration at 1.5 h,[5],37000 ng/mL
same,Drug metabolism,Plasma [6],6 µg/mL
same,Activity,Rattus norvegicus,Non-toxic
